Reference: patent US10105357B2, “Indication of antibiotic drugs for preparation of cancer inhibition pharmaceutical composition” (LAUNX BIOMEDICAL CO., LTD., priority 2014, dated 2018)
Where a name gives a salt, the structure may show the parent alone.

Columns and labels:
Format in all cases: cell-based, human
[1] = system: LoVo (Colorectal Adenocarcinoma); assay: Cell viability analysis, colon cancer LoVo; details: Homo sapiens, LoVo, 72 h, read-out: cell viability (survival rate), LoVo, drug 10 μM, 72 hours, WST-1, OD450 nm
[2] = system: A549 (Lung Adenocarcinoma); assay: Cell viability analysis, lung cancer A549; details: Homo sapiens, A549, 72 h, read-out: cell viability (survival rate), A549, drug 10 μM, 72 hours, WST-1, OD450 nm
[3] = system: A375 (Amelanotic Melanoma); assay: Cell viability analysis, skin cancer A375; details: Homo sapiens, A-375, 72 h, read-out: cell viability (survival rate), A375, drug 10 μM, 72 hours, WST-1, OD450 nm
[4] = system: TSGH-8301 (Urinary Bladder Carcinoma); assay: Cell viability analysis, bladder cancer TSGH-8301; details: Homo sapiens, 72 h, read-out: cell viability (survival rate), TSGH, drug 10 μM, 72 hours, WST-1, OD450 nm
[5] = system: HepG2 (Hepatocellular Carcinoma); assay: Cell viability analysis, hepatic cancer HepG2; details: Homo sapiens, HepG2, 72 h, read-out: cell viability (survival rate), HepG2, drug 10 μM, 72 hours, WST-1, OD450 nm
[6] = system: HeLa (Cervix Adenocarcinoma); assay: Cell viability analysis, cervical cancer HeLa; details: Homo sapiens, HeLa, 72 h, read-out: cell viability (survival rate), HeLa, drug 10 μM, 72 hours, WST-1, OD450 nm
[7] = system: MKN-45 (Gastric Adenocarcinoma); assay: Cell viability analysis, gastric cancer MKN-45; details: Homo sapiens, MKN-45, 72 h, read-out: cell viability (survival rate), MKN-45, drug 10 μM, 72 hours, WST-1, OD450 nm
[8] = system: HI650 (Lung Adenocarcinoma); assay: Cell viability analysis, lung cancer HI650; details: Homo sapiens, NCI-H1650, 72 h, read-out: cell viability (survival rate), H1650, drug 10 μM, 72 hours, WST-1, OD450 nm
[9] = system: HL-60 (Acute Promyelocytic Leukemia); assay: Cell viability analysis, leukemia HL-60; details: Homo sapiens, HL-60, 72 h, read-out: cell viability (survival rate), HL-60, drug 10 μM, 72 hours, WST-1, OD450 nm
[10] = system: cancer cell lines; assay: Cell viability analysis (WST-1) on cancer cell lines; details: drug 10 μM, 72 hours, WST-1; Table 3
[11] = system: AGS (Gastric Adenocarcinoma); assay: Cell viability analysis, gastric cancer AGS; details: Homo sapiens, 72 h, read-out: cell viability (survival rate), AGS, drug 10 μM, 72 hours, WST-1, OD450 nm
[12] = system: MCF7 (Mammary Gland, Adenocarcinoma); assay: Cell viability analysis, breast cancer MCF7; details: Homo sapiens, MCF7, 72 h, read-out: cell viability (survival rate), MCF7, drug 10 μM, 72 hours, WST-1, OD450 nm
[13] = system: PC3 (p53−) (Prostate Adenocarcinoma); assay: Cell viability analysis, prostate cancer PC3; details: Homo sapiens, 72 h, read-out: cell viability (survival rate), PC3, drug 10 μM, 72 hours, WST-1, OD450 nm

| SMILES | viability at 10 µM [1] | viability at 10 µM [2] | viability at 10 µM [3] | viability at 10 µM [4] | viability at 10 µM [5] | viability at 10 µM [6] | viability at 10 µM [7] | viability at 10 µM [8] | viability at 10 µM [9] | inhibition effect on different cancer cell lines [10] | viability at 10 µM [11] | viability at 10 µM [12] | viability at 10 µM [13] |
| --- | --- | --- | --- | --- | --- | --- | --- | --- | --- | --- | --- | --- | --- |
| Cc1nnc(NS(=O)(=O)c2ccc(N)cc2)s1 [Sulfamethizole (Proklar), Sulfamethizole] | 86.4% | 90.4% | 99.1% | 114% | 95% | 105% | 84.6% | 99.2% | 104% | significant inhibition effect | 86.6% | 100% | 86% |
| COc1cc2nc(N3CCN(C(=O)C4CCCO4)CC3)nc(N)c2cc1OC (stereo not shown) [Terazos in HCl (Hytrin), Terazosin HCl] | 45.7% | 21.3% | 77.9% | 71.6% | 93.4% | 60.7% | 82.1% | 74.9% | 111% | significant inhibition effect | 56.8% | 33.4% | 40.5% |
| Nc1nc(=O)n([C@@H]2CS[C@H](CO)O2)cc1F [Emtricitabine (Emtriva), Emtricitabine] | 82.6% | 86.9% | 84% | 85.3% | 110% | 79.6% | 62.8% | 61% | 119% | significant inhibition effect | 48% | 74% | 77.1% |
| c1ccc(-c2ccc(C(c3ccccc3)n3ccnc3)cc2)cc1 (stereo not shown) [Bifonazole] | 81.1% | 79.3% | 94.9% | 82.1% | 109% | 67.2% | 50.5% | 55.9% | 119% | significant inhibition effect | 64.3% | 73.3% | 78.2% |
| COC(=O)Nc1nc2ccc(Sc3ccccc3)cc2[nH]1 [Fenbendazole (Panacur), Fenbendazole] | 52.9% | 40.9% | 40.6% | 27.2% | 76.1% | 38.6% | 40.3% | 60.2% | 66.6% | significant inhibition effect | 29.9% | 55.8% | 42% |
| CN(C/C=C/c1ccccc1)Cc1cccc2ccccc12 [Naftifine HCl] | 86.3% | 127% | 63.3% | 79.6% | 91.2% | 80.6% | 58.5% | 72.3% | 93.2% | significant inhibition effect | 104% | 84.5% | 109% |
| CC1(C)S[C@@H]2[C@H](NC(=O)C(C(=O)O)c3ccccc3)C(=O)N2[C@H]1C(=O)O (stereo partly shown) [Carbenicillin disodium] | 86.2% | 53.5% | 70.2% | 84.3% | 88.9% | 77.8% | 84.3% | 76.2% | 114% | significant inhibition effect | 62.9% | 59% | 84.4% |
| Nc1nc(O)c2ncn(COC(CO)CO)c2n1 [Ganciclovir] | 99.9% | 104% | 94.8% | 103% | 109% | 107% | 87% | 97.3% | 98.7% | significant inhibition effect | 106% | 68.6% | 71.8% |
| C[N+]1(C)[C@@H]2C[C@@H](OC(=O)C(O)(c3cccs3)c3cccs3)C[C@H]1[C@@H]1O[C@@H]12 [Tiotropium Bromide hydrate] | 88.7% | 62% | 86.3% | 54.7% | 90.9% | 124% | 86.1% | 40.9% | 87.8% | significant inhibition effect | 73.1% | 80% | 83.8% |
| O=C(NC(Cc1cc(=O)[nH]c2ccccc12)C(=O)O)c1ccc(Cl)cc1 (stereo not shown) [Rebamipide] | 84.9% | 28% | 81.1% | 105% | 95.3% | 77.4% | 97.4% | 80.4% | 100% | significant inhibition effect | 89.6% | 39.1% | 82.2% |
| Clc1cccc(Cl)c1N=C1NCCN1 [Clonidine hydrochloride (Catapres), Clonidine hydrochloride] | 72.1% | 37.3% | 62.5% | 28.5% | 83.7% | 72% | 48.8% | 64.1% | 128% | significant inhibition effect | 36.4% | 68.8% | 40.7% |
| Nc1ccc(S(=O)(=O)Nc2ccccn2)cc1 [Sulfapyridine (Dagenan), Sulfapyridine] | 84.6% | 64.5% | 77.2% | 64.6% | 98.9% | 71.2% | 53.8% | 69.5% | 111% | significant inhibition effect | 71.9% | 54.7% | 108% |
| COc1cc(Cc2cnc(N)nc2N)cc(OC)c1OC [Trimethoprim] | 98.7% | 125% | 83.6% | 92.4% | 102% | 89% | 73.6% | 108% | 96.8% | significant inhibition effect | 97.7% | 104% | 151% |
